Data published in patent US8835644B2, “Broad spectrum benzothiophene-nitrothiazolide and other antimicrobials” (University of Virginia Patent Foundation, priority 2009, dated 2014).
Values after ≈ are worked out from the molar mass of the structure shown. Read-outs that look alike come from different tables or passages of the source. Values belong to the compound of their own block, whether it stands above or below them.

Key:
H. pylori = assay: MIC testing by broth dilution, H. pylori; format: cell-based, Helicobacter pylori
In short: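 Broth dilution MIC determination against H. pylori: a standard inoculum in 100 microliters of Brain Heart Infusion medium was placed in 96 well microplates. Test compounds began at 32 μg/ml in 200 microliters in well one and were serially diluted over a 32 to 0.06 range. After 24 h, plates were scored by eye and the first well without growth was recorded as the MIC.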

C. jejuni = assay: MIC testing by broth dilution, C. jejuni; format: cell-based, Campylobacter jejuni
In short: (§1)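 Twofold broth microdilution from 32 μg/ml down to 0.06, in LB for E. coli, Trypticase Soy for S. epidermidis (planktonic) and Brain Heart Infusion for C. jejuni. C. difficile: anaerobic disk diffusion on Wilkins Chalgrin agar, inhibition zone expressed as a ratio to the NTZ zone.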

MRSA = assay: MIC testing by broth dilution, MRSA; format: cell-based, Staphylococcus aureus
In short: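 Values are broth-dilution MICs, defined as the well showing no growth on visual reading after 24 h; the tested range was 32 to 0.06 μg/ml, in organism-specific media (LB, Trypticase Soy, Brain Heart Infusion). The C. difficile entries come instead from anaerobic Kirby-Bauer disk zones, normalised to NTZ.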

S. epidermidis = assay: MIC testing by broth dilution, S. epidermidis plank; format: cell-based, Staphylococcus epidermidis
In short: as §1

S. epidermidis biofilm = S. epidermidis biofilm assay (activity tables); format: cell-based, Staphylococcus epidermidis
Experimental: Staphylococcal strains were cultured overnight in TSB at 37° C. with shaking, diluted in fresh medium to an OD600 of 0.01 and 200 W was dispensed into sterile flat bottom polystyrene 96 well microtiter plates (Costar 3596, Corning Inc.). […] Each compound and dilution was tested in triplicate. The plates were incubated overnight at 37° C. in a humidified incubator, without shaking and both growth and biofilm accumulation were determined at 16 h.
Following recording of turbidities, the culture medium was aspirated and the wells were washed three times with distilled water, blotted on paper towels, and fixed with 75% ethanol for 10 minutes.
To visualize biofilm material, 0.5% crystal violet was added to each well and after 5 minutes was removed and the wells washed three times with distilled water. Plates were read using a microplate reader at a wavelength of 570 nm. The dye was then extracted by adding 200 W of 95% ethanol, and the absorbance was read again at 570 nm. All assays were performed in triplicate and the mean and standard deviation determined. […]
(§2) Representative compounds of the invention were tested in a series of assays against a series of organisms as described above. […] The organisms tested include, C. difficile, H. pylori, C. jejuni, MRSA, S. epidermidis, and E. coli. S. epidermidis and E. coli were tested in the plank and biofilm assay. A disk diffusion assay was also used for C. difficile. Direct PFOR enzyme assays were also performed. All analogues and derivatives were not tested on every organism in every type of assay (the “-” in each table means that it was not tested).

E. coli = assay: MIC testing by broth dilution, E. coli plank; format: cell-based, Escherichia coli
In short: as §1

E. coli biofilm = E. coli biofilm assay (activity tables); format: cell-based, Escherichia coli
Experimental: A quantitative biofilm assay was used to determine the effect of NTZ on biofilm formation (41). Strain 042 was grown overnight at 37° C. with shaking and inoculated 1:100 in 200 μl culture medium in Costar 96-well, flat-bottom, polystyrene microtiter plates containing appropriate concentrations of NTZ. Plates were incubated statically at 37° C. in a humidified incubator. At 24 h, bacterial growth was measured by either transferring […] aliquots to another microtiter plate to determine turbidity or by diluting 100 μl aliquots 1:100 in 9.9 ml PBS for quantitative plate counts on LB medium. Bacterial counts in triplicate are reported as cfu/ml. Biofilm was visualized following staining with 0.5% crystal violet (41) and the absorbance was read at 570 nm using a microplate reader (Molecular Dynamics). All experiments were in triplicate and reported as mean and standard deviation.
(§3) A standard broth dilution protocol was used in 96 well microplates containing a standard dilution of the microorganism to be tested in 100 microliters of the appropriate medium. Appropriate medium: E. coli, LB medium; Staphylococcus strains, Trypticase Soy; and for H. pylori and C. jejuni, Brain Heart Infusion. The compounds to be tested were set at 32 μg/ml in 200 microliters in well one and then serially diluted to provide a range from 32 to 0.06. The wells were scored visually at 24 h. The well where there was no growth was recorded as the MIC. Clostridium difficile was tested by agar diffusion and disk diffusion (Kirby Bower) methods under anaerobic conditions on Wilkins Chalgrin agar. In these assays, zone of inhibited growth was measured and compared by relative ratio to the zone recorded for NTZ.
as §2

C. difficile = assay: Disk diffusion (Kirby Bower), C. difficile; format: cell-based, Clostridium difficile; settings: Nitazoxanide = 100
Experimental: as §3, §2

Compound: O=C(Nc1ncc([N+](=O)[O-])s1)c1ccc(-c2cccc(C(F)(F)F)c2)o1 [VPC161197]
- MIC (H. pylori; Furan analogues table, read-out: MIC H. pylori): 1.1 µM (≈ 0.422 µg/mL)
- MIC (C. jejuni; Furan analogues table, read-out: MIC C. jejuni): 8.5 µM (≈ 3.26 µg/mL)
- MIC (MRSA; Furan analogues table, read-out: MIC MRSA): 11.4 µM (≈ 4.37 µg/mL)
- MIC (S. epidermidis; planktonic, Furan analogues table, read-out: MIC S. epidermidis Plank): 5.7 µM (≈ 2.18 µg/mL)
- MIC S. epidermidis Biofilm (S. epidermidis biofilm; Furan analogues table): 5.7 µM (≈ 2.18 µg/mL)
- MIC (E. coli; planktonic, Furan analogues table, read-out: MIC E. coli Plank): 90.8 µM (≈ 34.8 µg/mL)
- MIC (E. coli biofilm; biofilm; Furan analogues table; read-out: MIC E. coli Biofilm): 90.8 µM (≈ 34.8 µg/mL)

Compound: O=C(Nc1ccc(F)cc1)Nc1ncc([N+](=O)[O-])s1 [VPC161267]
- MIC (H. pylori; Helicobacter pylori, broth dilution, Brain Heart Infusion, 24 h, read-out: MIC (μM) H. pylori): 0.9 µM (≈ 0.254 µg/mL)
- MIC (C. jejuni; Campylobacter jejuni, broth dilution, Brain Heart Infusion, 24 h, read-out: MIC (μM) C. jejuni): 21.3 µM (≈ 6.01 µg/mL)
- MIC (MRSA; Staphylococcus aureus, MRSA, broth dilution, Trypticase Soy, 24 h, read-out: MIC (μM) MRSA): 56.7 µM (≈ 16 µg/mL)
- MIC (S. epidermidis; Staphylococcus epidermidis, broth dilution, Trypticase Soy, 24 h, read-out: MIC (μM) S. epidermidis Plank): 28.3 µM (≈ 7.99 µg/mL)
- MIC (μM) S. epidermidis Biofilm (S. epidermidis biofilm): 28.3 µM (≈ 7.99 µg/mL)
- MIC (E. coli; Escherichia coli, broth dilution, LB medium, 24 h, read-out: MIC (μM) E. coli Plank): 113 µM (≈ 32 µg/mL)
- MIC (E. coli biofilm; Escherichia coli; read-out: MIC (μM) E. coli Biofilm): 56.7 µM (≈ 16 µg/mL)

Compound: O=C(CCCC(=O)Nc1ncc([N+](=O)[O-])s1)Nc1ncc([N+](=O)[O-])s1 [VPC161276, N^1,N^5-Bis(5-nitrothiazol-2-yl)glutaramide]
- MIC (H. pylori; Helicobacter pylori, 24 h, read-out: MIC (μM) H. pylori): 5.2 µM (≈ 2.01 µg/mL)
- MIC (C. jejuni; Campylobacter jejuni, 24 h, read-out: MIC (μM) C. jejuni): 31.1 µM (≈ 12 µg/mL)
- MIC (MRSA; Staphylococcus aureus, MRSA, 24 h, read-out: MIC (μM) MRSA): 82.8 µM (≈ 32 µg/mL)
- MIC (S. epidermidis; Staphylococcus epidermidis, 24 h, read-out: MIC (μM) S. epidermidis Plank): 82.8 µM (≈ 32 µg/mL)
- MIC (μM) S. epidermidis Biofilm (S. epidermidis biofilm): 1.3 µM (≈ 0.502 µg/mL)
- MIC (E. coli; Escherichia coli, 24 h, read-out: MIC (μM) E. coli Plank): 82.8 µM (≈ 32 µg/mL)
- MIC (E. coli biofilm; Escherichia coli, read-out: MIC (μM) E. coli Biofilm): 82.8 µM (≈ 32 µg/mL)

Compound: O=C(Nc1ncc([N+](=O)[O-])s1)c1ncc([N+](=O)[O-])s1 [VPC161280]
- MIC (H. pylori; Thiophene analogues table, read-out: MIC H. pylori): 6.6 µM (≈ 1.99 µg/mL)
- MIC (C. jejuni; Thiophene analogues table, read-out: MIC C. jejuni): 13.3 µM (≈ 4.01 µg/mL)
- MIC (MRSA; Thiophene analogues table, read-out: MIC MRSA): 53.1 µM (≈ 16 µg/mL)
- MIC (S. epidermidis; planktonic, Thiophene analogues table, read-out: MIC S. epidermidis Plank): 5.0 µM (≈ 1.51 µg/mL)
- MIC S. epidermidis Biofilm (S. epidermidis biofilm; Thiophene analogues table): 6.6 µM (≈ 1.99 µg/mL)
- MIC (E. coli; planktonic, Thiophene analogues table, read-out: MIC E. coli Plank): 39.8 µM (≈ 12 µg/mL)
- MIC (E. coli biofilm; biofilm; Thiophene analogues table; read-out: MIC E. coli Biofilm): 3.3 µM (≈ 0.994 µg/mL)

The next lines start with results.

- MIC (H. pylori; broth dilution, Brain Heart Infusion, 24 h, read-out: MIC (μM) H. pylori): 1.8 µM (≈ 0.742 µg/mL)
- MIC (C. jejuni; broth dilution, Brain Heart Infusion, 24 h, read-out: MIC (μM) C. jejuni): 29.1 µM (≈ 12 µg/mL)
- MIC (MRSA; broth dilution, Trypticase Soy, 24 h, read-out: MIC (μM) MRSA): 77.6 µM (≈ 32 µg/mL)
- MIC (S. epidermidis; broth dilution, Trypticase Soy, 24 h, read-out: MIC (μM) S. epidermidis Plank): 77.6 µM (≈ 32 µg/mL)
- MIC (μM) S. epidermidis Biofilm (S. epidermidis biofilm): 2.4 µM (≈ 0.99 µg/mL)
- MIC (E. coli; broth dilution, LB medium, 24 h, read-out: MIC (μM) E. coli Plank): 77.6 µM (≈ 32 µg/mL)
- MIC (E. coli biofilm; biofilm; read-out: MIC (μM) E. coli Biofilm): 77.6 µM (≈ 32 µg/mL)
Compound: Cc1ncc([N+](=O)[O-])n1CCOC(=O)CCCC(=O)Nc1ncc([N+](=O)[O-])s1 [VPC161277]

- MIC (H. pylori; Helicobacter pylori, Furan analogues table, read-out: MIC H. pylori): 1.6 µM (≈ 0.509 µg/mL)
- MIC (C. jejuni; Campylobacter jejuni, Furan analogues table, read-out: MIC C. jejuni): 12.6 µM (≈ 4.01 µg/mL)
- MIC (MRSA; Staphylococcus aureus, MRSA, Furan analogues table, read-out: MIC MRSA): 6.3 µM (≈ 2 µg/mL)
- MIC (S. epidermidis; Staphylococcus epidermidis, planktonic, Furan analogues table, read-out: MIC S. epidermidis Plank): 25.1 µM (≈ 7.98 µg/mL)
- MIC S. epidermidis Biofilm (S. epidermidis biofilm; Furan analogues table): 50.3 µM (≈ 16 µg/mL)
- MIC (E. coli; Escherichia coli, planktonic, Furan analogues table, read-out: MIC E. coli Plank): 101 µM (≈ 32 µg/mL)
- MIC (E. coli biofilm; Escherichia coli; biofilm; Furan analogues table; read-out: MIC E. coli Biofilm): 0.4 µM (≈ 0.127 µg/mL)
Compound: O=C(Nc1ncc([N+](=O)[O-])s1)c1ccc(Br)o1 [VPC161281, 5-Bromo-N-(5-nitrothiazol-2-yl)furan-2-carboxamide]
- Disk Diff (%) C. difficile (C. difficile; Furan analogues table): 92%

- MIC (H. pylori; Helicobacter pylori, Thiophene analogues table, read-out: MIC H. pylori): 3 µM (≈ 1 µg/mL)
- MIC (C. jejuni; Campylobacter jejuni, Thiophene analogues table, read-out: MIC C. jejuni): 9.9 µM (≈ 3.31 µg/mL)
- MIC (MRSA; Staphylococcus aureus, MRSA, Thiophene analogues table, read-out: MIC MRSA): 4.5 µM (≈ 1.5 µg/mL)
- MIC (S. epidermidis; Staphylococcus epidermidis, planktonic, Thiophene analogues table, read-out: MIC S. epidermidis Plank): 23.9 µM (≈ 7.99 µg/mL)
- MIC S. epidermidis Biofilm (S. epidermidis biofilm; Thiophene analogues table): 47.9 µM (≈ 16 µg/mL)
- MIC (E. coli; Escherichia coli, planktonic, Thiophene analogues table, read-out: MIC E. coli Plank): 95.8 µM (≈ 32 µg/mL)
- MIC (E. coli biofilm; Escherichia coli; biofilm; Thiophene analogues table; read-out: MIC E. coli Biofilm): 0.1 µM (≈ 0.0334 µg/mL)
Compound: O=C(Nc1ncc([N+](=O)[O-])s1)c1ccc(Br)s1 [VPC161282, 5-Bromo-N-(5-nitrothiazol-2-yl)thiophene-2-carboxamide]
- Disk Diff (%) C. difficile (C. difficile; Thiophene analogues table): 90%
